According to EP0851756B1, “USE OF ONDANSETRON IN THE MANUFACTURE OF A MEDICAMENT FOR THE TREATMENT OF TREMOR” (GLAXO GROUP LIMITED, priority 1995, dated 1997):
Values joined by “and” are separate entries in the source; they are usually repeats but may differ in a detail not shown here. Identical values can stand only once.

Legend:
Assay type in all cases: in vivo, patients
[1] = system: cerebellar tremor caused by MS, cerebellar degeneration or drug toxicity; assay: Placebo-controlled, double blind, crossover study: manual co-ordination (spiral copying, word copying or line drawing) judged by blind observers; parameters: key to Spiral Writing drug: 0 = none; + = a little; ++ = moderate; +++ = a lot of improvement
Protocol: (§1) A placebo-controlled, double blind, crossover study of intravenous ondansetron in twenty patients with cerebellar tremor caused by MS, cerebellar degeneration or drug toxicity was conducted. Most had tremor based upon cerebellar involvement from MS; three had familial degenerative disorders involving the cerebellum and one had acquired lithium toxicity. The clinical information and prior treatment of the patients is outlined below in Table 1. Patients were randomly assigned to receive intravenous ondansetron (8mg or a placebo, consisting of normal saline). The drug was given by intravenous bolus injection. Patients were given the alternate agent at a later interval. The principal outcome measure was the change in manual co-ordination tasks as assessed by spiral copying, word copying or line drawing and the time to complete a nine-hole peg test. Only 12 patients had sufficient co-ordination to complete the nine-hole peg test. The clinical outcome was measured at baseline and one hour following the infusion. Figures 1 (a), (b) and (c) represent an attempt to copy a spiral by the first mentioned patient in Table 1. Figure 1(a) represents an attempt prior to treatment with ondansetron; figure 1(b) an attempt after receiving placebo; and figure 1 (c) an attempt after receiving ondansetron.

[2] = system: cerebellar tremor caused by MS, cerebellar degeneration or drug toxicity; assay: Placebo-controlled, double blind, crossover study: time to complete a nine-hole peg test
Protocol: as §1, with “infusion.” for “infusion. Figures 1 (a), (b) and (c) represent an attempt to copy a spiral by the first mentioned patient in Table 1. Figure 1(a) represents an attempt prior to treatment with ondansetron; figure 1(b) an attempt after receiving placebo; and figure 1 (c) an attempt after receiving ondansetron.”

[3] = system: cerebellar tremor caused by MS, cerebellar degeneration or drug toxicity; assay: Placebo-controlled, double blind, crossover study: subjective response and patient identification of treatment assignment; parameters: key to Subjective drug response: 0 = none; + = a little; ++ = moderate; +++ = a lot of improvement
Protocol: A placebo-controlled, double blind, crossover study of intravenous ondansetron in twenty patients with cerebellar tremor caused by MS, cerebellar degeneration or drug toxicity was conducted. Most had tremor based upon cerebellar involvement from MS; three had familial degenerative disorders involving the cerebellum and one had acquired lithium toxicity. The clinical information and prior treatment of the patients is outlined below in Table 1. Patients were randomly assigned to receive intravenous ondansetron (8mg or a placebo, consisting of normal saline). The drug was given by intravenous bolus injection. Patients were given the alternate agent at a later interval. The clinical outcome was measured at baseline and one hour following the infusion. Patient identification of treatment assignment was correct in 12/20 instances and this was based upon efficacy. None believed placebo to be better (p=0.014; Fisher exact ratio).

[4] = system: cerebellar tremor caused by MS, cerebellar degeneration or drug toxicity; assay: Clinical observations: tolerability, long-term use, withdrawal, oral dosing
[5] = individual patients, 8mg intravenous bolus, baseline vs one hour following the infusion

Compound: Cc1nccn1CC1CCc2c(c3ccccc3n2C)C1=O (stereo not drawn) [ondansetron, 1,2,3,9-tetrahydro-9-methyl-3-[(2-methyl-1H-imidazol-1-yl)methyl]-4H-carbazol-4-one]
- favourable clinical response, MS subgroup ([1]; MS subgroup of 16 patients, number with a response, p=0.001): 13
- favourable clinical response identified by a panel of three blind observers ([1]; entire study group, 8mg intravenous, p=0.009 vs placebo (Fisher exact ratio)): 13 of the 20
- Spiral Writing drug [1, 5]: + (6×) and +++ (4×) and ++ (4×) and 0 (5×)
- Spiral Writing drug, Ratio ([1]; patients with improvement / patients assessed, 8mg intravenous, placebo 1/19): 13/19
- 9 hole peg-drug ([2]; individual patients, 8mg intravenous bolus, one hour following the infusion): 110 secs and 63 secs and 155 secs and 55 secs (2×) and 48 secs and 180 secs and 85 secs and 57 secs and 45 secs and 70 secs and 29 secs
- 9 hole peg-drug (secs), Mean ([2]; mean of 12 patients, 8mg intravenous, placebo 87±12): 79 ± 13 s
- mean time for the completion of the nine hole peg test ([2]; ± standard error, 8mg intravenous, placebo 87 ± 12, p=0.04 (Mann Whitney, one tailed, paired)): 79 ± 13 s
- Patient identification of treatment assignment correct ([3]; based upon efficacy, none believed placebo to be better (p=0.014; Fisher exact ratio)): 12/20
- Subjective drug response [3, 5]: ++ (5×) and 0 (8×) and + (3×) and +++ (3×) and + (dysarthria)
- speech after treatment ([3]; one patient with cerebellar degeneration too disabled to complete the tasks (Cd2, Table 1)): improved speech
- Subjective drug response, Ratio ([3]; patients with improvement / patients assessed, 8mg intravenous, placebo 0/18): 12/20
- sustaining of the effect in the long term ([4]; long term use): could be sustained in the long term
- reproduction of the effect of intravenous ondansetron by oral dosing ([4]; oral ondansetron (8-16mg)): could be reproduced
- tolerability ([4]; patients with cerebellar tremor): well tolerated
- tremor after withdrawal of the medication ([4]; withdrawal): tremor returning to pre-study levels
